Values after ≈ are worked out from the molar mass of the structure shown. Active and inactive are the calls of the source. The rule behind the calls is not given here. Peptide text beside a SMILES is read from it.
Legend:
Salmonella typhimurium [1] = test: Antibacterial activity against Salmonella typhimurium DT104 in the presence of KCl by MH broth based assay; assay type: functional, Salmonella enterica subsp. enterica serovar Typhimurium; details: Salmonella enterica
Salmonella typhimurium [2] = test: Antibacterial activity against Salmonella typhimurium DT104 in the presence 50% inactivated mouse serum by MH broth based assay; assay type: functional, Salmonella enterica subsp. enterica serovar Typhimurium; details: Salmonella enterica
Salmonella typhimurium [3] = test: Antibacterial activity against Salmonella typhimurium DT104 in the presence of CaCl2 by MH broth based assay; assay type: functional, Salmonella enterica subsp. enterica serovar Typhimurium; details: Salmonella enterica
Salmonella typhimurium [4] = test: Antibacterial activity against Salmonella typhimurium DT104 in the presence of NaCl by MH broth based assay; assay type: functional, Salmonella enterica subsp. enterica serovar Typhimurium; details: Salmonella enterica
Salmonella typhimurium [5] = test: Antibacterial activity against Salmonella typhimurium DT104 in the presence of FeCl3 by MH broth based assay; assay type: functional, Salmonella enterica subsp. enterica serovar Typhimurium; details: Salmonella enterica
Salmonella typhimurium [6] = test: Antibacterial activity against Salmonella typhimurium DT104 in the presence of NH4Cl by MH broth based assay; assay type: functional, Salmonella enterica subsp. enterica serovar Typhimurium; details: Salmonella enterica
Salmonella typhimurium [7] = test: Antibacterial activity against Salmonella typhimurium DT104 in the presence of MgCl2 by MH broth based assay; assay type: functional, Salmonella enterica subsp. enterica serovar Typhimurium; details: Salmonella enterica
Salmonella typhimurium [8] = test: Antibacterial activity against Salmonella typhimurium DT104 in the presence 25% inactivated mouse serum by MH broth based assay; assay type: functional, Salmonella enterica subsp. enterica serovar Typhimurium; details: Salmonella enterica
Salmonella typhimurium [9] = test: Antibacterial activity against Salmonella typhimurium DT104 ATCC 700408 incubated overnight by standard microtiter dilution method; assay type: functional, Salmonella enterica subsp. enterica serovar Typhimurium; details: Salmonella enterica
RAW264.7 [10] = test: Inhibition of LPS-stimulated IL-8 production in mouse RAW264.7 cells at 1 to 128 ug/ml incubated for 24 hrs by ELISA analysis; assay type: functional, cell-based; details: dose 1-128 µg/ml
RAW264.7 [11] = test: Inhibition of LPS-stimulated TNF-alpha production in mouse RAW264.7 cells at 1 to 128 ug/ml incubated for 24 hrs by ELISA analysis; assay type: functional, cell-based; details: dose 1-128 µg/ml
Escherichia coli = test: Antibacterial activity against Escherichia coli O157:H7 CICC 21530 incubated overnight by standard microtiter dilution method; assay type: functional
[12] = test system: Staphylococcus epidermidis; test: Antibacterial activity against methicillin-resistant Staphylococcus epidermidis ATCC 12228 incubated overnight by standard microtiter dilution method; assay type: functional
[13] = Antibacterial activity against Salmonella enterica subsp. enterica serovar Choleraesuis ATCC 13312 incubated overnight by standard microtiter dilution method; assay type: functional
[14] = Antibacterial activity against Salmonella dublin CICC 21497 incubated overnight by standard microtiter dilution method; assay type: functional, Salmonella enterica subsp. enterica serovar Dublin; details: Salmonella enterica
Erythrocyte = test: Hemolytic activity in human Red blood cells assessed as hemolysis incubated for 1 hrs by absorbance based microplate reader analysis; assay type: toxicity, cell-based
Staphylococcus aureus [15] = test: Antibacterial activity against Staphylococcus aureus ATCC 29213 incubated overnight by standard microtiter dilution method; assay type: functional
Salmonella typhimurium [16] = test: Antibacterial activity against Salmonella typhimurium CICC 21913 incubated overnight by standard microtiter dilution method; assay type: functional, Salmonella enterica subsp. enterica serovar Typhimurium; details: Salmonella enterica
Lipopolysaccharide (LPS) = test: Displacement of BODIPY-TR-cadaverine from Salmonella typhimurium LPS assessed as increase in fluorescence intensity by fluorescence spectrophotometric analysis; details: Salmonella enterica subsp. enterica serovar Typhimurium; dose 0.25-8 µg/ml
[17] = Hemolytic activity in human Red blood cells assessed as hemolysis at 128 ug/ml incubated for 1 hrs by absorbance based microplate reader analysis relative to control; assay type: toxicity, cell-based, Erythrocyte; details: red blood cells (erythrocytes), at 128 µg/mL, read-out: Activity
RAW264.7 [18] = test: Inhibition of LPS-stimulated IL-1beta production in mouse RAW264.7 cells at 1 to 128 ug/ml incubated for 24 hrs by ELISA analysis; assay type: functional, cell-based; details: dose 1-128 µg/ml
Salmonella enteritidis = test: Antibacterial activity against Salmonella enteritidis CICC 21527 incubated overnight by standard microtiter dilution method; assay type: functional, Salmonella enterica subsp. enterica serovar Enteritidis; details: Salmonella enterica
[19] = Antibacterial activity against Salmonella wandsworth CICC 21504 incubated overnight by standard microtiter dilution method; assay type: functional, Salmonella enterica subsp. enterica serovar Wandsworth; details: Salmonella enterica
[20] = Antibacterial activity against Salmonella paratyphi C CICC 21512 incubated overnight by standard microtiter dilution method; assay type: functional, Salmonella enterica subsp. enterica serovar Paratyphi C; details: Salmonella enterica
[21] = Antibacterial activity against Salmonella enterica subsp. enterica serovar Choleraesuis CICC 21493 incubated overnight by standard microtiter dilution method; assay type: functional
Staphylococcus aureus [22] = test: Antibacterial activity against methicillin-resistant Staphylococcus aureus ATCC 43300 incubated overnight by standard microtiter dilution method; assay type: functional
RAW264.7 [23] = test: Inhibition of LPS-stimulated NO production in mouse RAW264.7 cells incubated for 24 hrs by Griess reagent based analysis; assay type: functional, cell-based; details: dose 1-128 µg/ml
[24] = Antibacterial activity against Salmonella blockley CICC 21489 incubated overnight by standard microtiter dilution method; assay type: functional, Salmonella enterica subsp. enterica serovar Blockley; details: Salmonella enterica
Enterococcus faecalis = test: Antibacterial activity against Enterococcus faecalis ATCC 29212 incubated overnight by standard microtiter dilution method; assay type: functional
Cell membrane = test: Disruption of membrane integrity in Salmonella typhimurium DT104 assessed as increase in fluorescence intensity at 0.5 to 2 times of MIC incubated for 15 mins by PI staining based flow cytometric analysis; assay type: subcellular; details: Salmonella enterica subsp. enterica serovar Typhimurium
Salmonella typhimurium [25] = test: Antibacterial activity against Salmonella typhimurium CICC 21483 incubated overnight by standard microtiter dilution method; assay type: functional, Salmonella enterica subsp. enterica serovar Typhimurium; details: Salmonella enterica
Candida albicans = test: Antifungal activity against Candida albicans ATCC 10231 incubated overnight by standard microtiter dilution method; assay type: functional
[26] = test system: Salmonella enterica subsp. enterica serovar Paratyphi B; test: Antibacterial activity against Salmonella paratyphi B CICC 21495 incubated overnight by standard microtiter dilution method; assay type: functional
Salmonella paratyphi = test: Antibacterial activity against Salmonella paratyphi A CICC 21501 incubated overnight by standard microtiter dilution method; assay type: functional, Salmonella enterica subsp. enterica serovar Paratyphi A; details: Salmonella enterica

| Compound | MIC (Salmonella typhimurium [1]) [µg/mL] | MIC (Salmonella typhimurium [2]) [µg/mL] | MIC (Salmonella typhimurium [3]) [µg/mL] | MIC (Salmonella typhimurium [4]) [µg/mL] | MIC (Salmonella typhimurium [5]) [µg/mL] | MIC (Salmonella typhimurium [6]) [µg/mL] | MIC (Salmonella typhimurium [7]) [µg/mL] | MIC (Salmonella typhimurium [8]) [µg/mL] | MIC (Salmonella typhimurium [9]) [µg/mL] | inhibition (RAW264.7 [10]) | inhibition (RAW264.7 [11]) | MIC (Escherichia coli) [µg/mL] | MIC [12] [µg/mL] | MIC [13] [µg/mL] | MIC [14] [µg/mL] | MHC (Erythrocyte) [µg/mL] | MIC (Staphylococcus aureus [15]) [µg/mL] | MIC (Salmonella typhimurium [16]) [µg/mL] | Activity (Lipopolysaccharide (LPS)) | hemolysis at 1 h, 128 ug/ml [17] [%] | further results |
| --- | --- | --- | --- | --- | --- | --- | --- | --- | --- | --- | --- | --- | --- | --- | --- | --- | --- | --- | --- | --- | --- |
| CC(C)C[C@H](NC(=O)[C@H](CCCNC(=N)N)NC(=O)CNC(=O)CNC(=O)[C@@H](N)CCCNC(=N)N)C(=O)N[C@H]1CSSC[C@@H](C(=O)N[C@H](C(=O)NCC(=O)N[C@@H](CCCNC(=N)N)C(N)=O)C(C)C)NC(=O)[C@H](C(C)C)NC(=O)[C@@H]2CSSC[C@H](NC(=O)[C@H](Cc3ccc(O)cc3)NC1=O)C(=O)N[C@@H](CCCNC(=N)N)C(=O)N[C@@H](CCCNC(=N)N)C(=O)N[C@@H](CCCNC(=N)N)C(=O)N[C@@H](Cc1ccccc1)C(=O)N2 | 8 | 64 (≈ 29.7 µM) | 16 | 16 | 32 | 8 | 8 | 32 (≈ 14.8 µM) | – | – | – | – | – | – | – | – | – | – | – | – | – |
| CC(C)[C@H](NC(=O)CNC(=O)[C@H](CC(N)=O)NC(=O)CNC(=O)[C@H](Cc1ccc(O)cc1)NC(=O)[C@H](Cc1ccc(O)cc1)NC(=O)[C@@H](N)CCCCN)C(=O)N[C@@H](Cc1c[nH]cn1)C(=O)N[C@@H](CS)C(=O)N[C@H](C(=O)N[C@@H](CCCCN)C(=O)N[C@@H](CO)C(=O)NCC(=O)N[C@@H](CS)C(=O)N[C@@H](CO)C(=O)N[C@H](C(=O)N[C@@H](CC(N)=O)C(=O)N[C@@H](Cc1c[nH]c2ccccc12)C(N)=O)C(C)C)[C@@H](C)O (H-KYYGNGVHCTKSGCSVNW-NH2) | 128 | > 128 | > 128 | > 128 | 64 | 64 | 128 | > 128 | > 128 | Active | Active | 64 (≈ 32 µM) | 64 (≈ 32 µM) | 32 (≈ 16 µM) | 32 (≈ 16 µM) | > 128 | > 128 | > 128 | Dose-Dependent Effect | < 10 | inhibition (RAW264.7 [18]): Active; MIC (Salmonella enteritidis): 64 µg/mL (≈ 32 µM); MIC [19]: 64 µg/mL (≈ 32 µM); MIC [20]: 32 µg/mL (≈ 16 µM); MIC [21]: 128 µg/mL (≈ 63.9 µM); MIC (Staphylococcus aureus [22]): > 128 µg/mL; inhibition (RAW264.7 [23]): Dose-Dependent Effect; MIC [24]: 64 µg/mL (≈ 32 µM); MIC (Enterococcus faecalis): > 128 µg/mL; Activity (Cell membrane): inactive; MIC (Salmonella typhimurium [25]): 64 µg/mL (≈ 32 µM); MIC (Candida albicans): 16 µg/mL (≈ 7.99 µM); MIC [26]: 32 µg/mL (≈ 16 µM); MIC (Salmonella paratyphi): 128 µg/mL (≈ 63.9 µM) |
| CC(C)C[C@H](NC(=O)[C@H](CCCCN)NC(=O)[C@H](CS)NC(=O)CNC(=O)[C@H](CO)NC(=O)[C@H](CCCCN)NC(=O)[C@@H](NC(=O)[C@H](CS)NC(=O)[C@H](CCCCN)NC(=O)[C@@H](N)CC(C)C)[C@@H](C)O)C(N)=O (H-LKCTKSGCKL-NH2) | > 128 | > 128 | > 128 | > 128 | > 128 | > 128 | > 128 | > 128 | > 128 | Active | Active | > 128 | > 128 | > 128 | > 128 | > 128 | > 128 | > 128 | Dose-Dependent Effect | < 10 | inhibition (RAW264.7 [18]): Active; MIC (Salmonella enteritidis): > 128 µg/mL; MIC [19]: > 128 µg/mL; MIC [20]: > 128 µg/mL; MIC [21]: > 128 µg/mL; MIC (Staphylococcus aureus [22]): > 128 µg/mL; inhibition (RAW264.7 [23]): Dose-Dependent Effect; MIC [24]: > 128 µg/mL; MIC (Enterococcus faecalis): > 128 µg/mL; MIC (Salmonella typhimurium [25]): > 128 µg/mL; MIC (Candida albicans): > 128 µg/mL; MIC [26]: > 128 µg/mL; MIC (Salmonella paratyphi): > 128 µg/mL |

Source: ChEMBL document CHEMBL5352429, “Designed symmetrical β-hairpin peptides for treating multidrug-resistant salmonella typhimurium infections” (Eur J Med Chem, 2022)
